Type in all cases: cell-based
In assay [1] the test system is Aspergillus flavus. Nature of the assay: MIC, RPMI medium. Particulars: MIC banded into grades; for MIC: Aspergillus flavus, read-out: MIC grade, A. flavus. The procedure: (§1) Between 1 and 5 mgs of compound were accurately weighed out into a sterile Eppendorf tube. The compound was dissolved in DMSO to give a solution containing 5 mg/mL. Tubes were stored at −20° C. until required.
(§2) On the day of testing thawed solutions were vortex mixed to ensure homogeneity. 30 μL of solution was removed and added to 570 μL of sterile water in a separate sterile Eppendorf. The thoroughly mixed solution was used to prepare a series of doubling dilutions in water, in a deep well plate. Thirteen replicate plates were prepared using a Minitrak by aspirating 20 μL from each well into eleven clear polystyrene 96 well plates.
(§3) Assays were also performed in RPMI medium for both Aspergillus spp. (strains described above) and Candida spp. (Candida albicans, Candida glabrata, Candida krusei, Candida parapsilosis and Candida tropicalis). To perform MIC tests in this medium, dilutions of compounds are prepared in microtitre plates as described above. Fungal strains to be tested are grown and harvested in an identical manner to that described above, and each organism suspension was diluted in RPMI medium, containing 2% glucose and 0.135 M MOPS buffer (pH 7.0) to 0.5-2×10^4 cfu/mL, rather than in YAG medium. 80 μL of an organism suspension was added to each well of the plate containing drug dilutions.
(§4) This produced MIC plates with a drug range 50-0.05 mg/L and organism inocula of 1−2×10^4 cfu/mL. All plates were incubated for 24-48 h at 35° C. Growth was assessed by monitoring the optical density at 485 nm for each well. The MIC of a compound is the lowest drug concentration that inhibits growth of an organism by >80% compared with a drug free control.
(§5) The following organisms were tested: Aspergillus flavus, Aspergillus fumigatus AF293 and AF210, Aspergillus niger, Aspergillus terreus AT4 and AT49, Candida albicans, Candida glabrata, Candida krusei, Candida parapsilosis and Candida tropicalis.

The subject of assay [2] is Aspergillus niger. Nature of the assay: MIC, RPMI medium. Particulars: MIC banded into grades; for MIC: Aspergillus niger, read-out: MIC grade, A. niger. As for the experimental part:
as §1, §2, §3, §4, §5

Assay [3] has as its system Aspergillus terreus AT4. The assay can be described thus: MIC, RPMI medium. Particulars: for MIC: Aspergillus terreus, AT4, MIC banded into grades, read-out: MIC grade, A. terreus. The procedure:
as §1, §2, §3, §4, §5

The subject of assay [4] is Aspergillus fumigatus AF210. The assay can be described thus: MIC, RPMI medium. The note with it: for MIC: Aspergillus fumigatus, AF210, MIC banded into grades, read-out: MIC grade, A. fumigatus 210. The procedure: as §1, §2, §3, §4, §5
Assay [5] relates to Aspergillus fumigatus AF293. Nature of the assay: MIC, RPMI medium. The note with it: for MIC: Aspergillus fumigatus, AF293, MIC banded into grades, read-out: MIC grade, A. fumigatus. The procedure: as §1, §2, §3, §4, §5
In assay [6] the test system is Aspergillus terreus AT49. The assay can be described thus: MIC, RPMI medium. Particulars: for MIC: Aspergillus terreus, AT49, MIC banded into grades, read-out: MIC grade, A. terreus 49. The procedure:
as §1, §2, §3, §4, §5

Assay [7] concerns Aspergillus flavus. Nature of the assay: MIC, YAG medium. Particulars: 24 h at 35° C, MIC banded into grades; for MIC: Aspergillus flavus, 24 h, read-out: MIC grade, A. flavus. The procedure: as §1, §2
(§6) Spores of Aspergillus spp. (Aspergillus fumigatus [two strains], Aspergillus terreus [two strains], Aspergillus niger and Aspergillus flavus) were harvested from cultures grown on Sabarauds agar for 5 days, and resuspended in PBS/Tween 80 to approx 1×10^7 cfu/mL. Each organism suspension was diluted in YAG medium (1% glucose, 1% ammonium chloride and 0.5% yeast extract) to 0.5−2×10^4 cfu/mL. 80 μL of an organism suspension was added to each well of the plate containing drug dilutions.
(§7) This produced MIC plates with a drug range 50-0.05 mg/L and organism inocula of 1−2×10^4 cfu/mL for Aspergillus spp. All plates were incubated for 24 h at 35° C. Growth was assessed by monitoring the optical density at 485 nm for each well. The MIC of a compound is the lowest drug concentration that inhibits growth of an organism by >70% compared with a drug free control. MICs are recorded as mg/L. In cases where the MIC of an organism is […] mg/L the MIC is repeated using a concentration range of 0.5-0.0005 mg/L.
as §5

Assay [8] relates to Aspergillus niger. The assay can be described thus: MIC, YAG medium. The note with it: 24 h at 35° C, MIC banded into grades; for MIC: Aspergillus niger, read-out: MIC grade, A. niger. The procedure:
as §1, §2, §6, §7, §5

Assay [9] has as its system Aspergillus terreus AT4. Nature of the assay: MIC, YAG medium. The note with it: 24 h at 35° C, MIC banded into grades; for MIC: Aspergillus terreus, read-out: MIC grade, A. terreus. As for the experimental part: as §1, §2, §6, §7, §5
The subject of assay [10] is Aspergillus fumigatus AF210. The assay can be described thus: MIC, YAG medium. Particulars: 24 h at 35° C, MIC banded into grades; for MIC: Aspergillus fumigatus, read-out: MIC grade, A. fumigatus 210. The procedure: as §1, §2, §6, §7, §5
Assay [11] has as its system Aspergillus fumigatus AF293. The assay can be described thus: MIC, YAG medium. Particulars: 24 h at 35° C, MIC banded into grades; for MIC: Aspergillus fumigatus, read-out: MIC grade, A. fumigatus. As for the experimental part: as §1, §2, §6, §7, §5
In assay [12] the test system is Aspergillus terreus AT49. Nature of the assay: MIC, YAG medium. Particulars: 24 h at 35° C, MIC banded into grades; for MIC: Aspergillus terreus, read-out: MIC grade, A. terreus 49. As for the experimental part:
as §1, §2, §6, §7, §5

Each structure is given as a SMILES string. ≈ marks a conversion by molar mass, not a printed value.

Here are results for eight molecules from patent US8993574B2, “Pyrrole antifungal agents” (F2G Ltd, priority 2008, dated 2015).

As for `Cc1ccnc(N2CCN(c3ccc(NC(=O)C(=O)c4c(-c5ccccc5)cc(C)n4C)cc3)CC2)c1` [Example 40, 2-(1,5-Dimethyl-3-phenyl-1H-pyrrol-2-yl)-N-{4-[4-(4-methyl-pyridin-2-yl)-piperazin-1-yl]-phenyl}-2-oxo-acetamide], the MIC in assay [1], in [2], in [3], in [4], in [5] and in assay [6] was less than 1 µg/mL in each case. Moreover, the MIC in [7], in assay [8], in [9], in assay [10], in assay [11] and in assay [12] was less than 1 µg/mL each time.

With `Cc1cc(C)nc(N2CCN(c3ccc(NC(=O)C(=O)c4c(-c5ccco5)cc(C)n4C)cc3)CC2)c1` [Example 12, N-{4-[4-(4,6-Dimethyl-pyridin-2-yl)-piperazin-1-yl]-phenyl}-2-(3-furan-2-yl-1,5-dimethyl-1H-pyrrol-2-yl)-2-oxo-acetamide], the MIC in [1], in assay [2], in assay [3], in assay [4], in [5] and in assay [6] was less than 1 µg/mL each time. The MIC in [7], in assay [8], in [9], in assay [10], in assay [11] and in [12] was less than 1 µg/mL throughout.

As to `Cc1cc(-c2ccccc2)c(C(=O)C(=O)Nc2ccc(N3CCOCC3)cc2F)n1C` [Example 101, 2-(1,5-Dimethyl-3-phenyl-1H-pyrrol-2-yl)-N-(2-fluoro-4-morpholin-4-yl-phenyl)-2-oxo-acetamide], the MIC in assay [1], in assay [2], in assay [3], in [4], in assay [5] and in assay [6] was less than 1 µg/mL each time. The MIC in assay [7], in assay [8], in assay [9], in assay [10], in assay [11] and in [12] was less than 1 µg/mL throughout.

For `CCc1cc(-c2ccccc2)c(C(=O)C(=O)Nc2ccc(N3CCN(c4cc(C)cc(C)n4)CC3)cc2)n1CCOC` [Example 54, N-{4-[4-(4,6-Dimethyl-pyridin-2-yl)-piperazin-1-yl]-phenyl}-2-[5-ethyl-1-(2-methoxy-ethyl)-3-phenyl-1H-pyrrol-2-yl]-2-oxo-acetamide], the MIC in assay [1] was greater than 10 µg/mL; in assay [2] it was 1 to 10 µg/mL (≈ 1.77 to 17.7 µM); in [3], greater than 10 µg/mL; in assay [4], 1 to 10 µg/mL (≈ 1.77 to 17.7 µM); in [5], less than 1 µg/mL; in assay [6], greater than 10 µg/mL. Besides, the MIC in assay [7] was 1 to 10 µg/mL (≈ 1.77 to 17.7 µM); in assay [8], 1 to 10 µg/mL (≈ 1.77 to 17.7 µM); in [9], 1 to 10 µg/mL (≈ 1.77 to 17.7 µM); in assay [10] it was less than 1 µg/mL; in assay [11] it was less than 1 µg/mL; in [12], less than 1 µg/mL.

In the case of `COCCn1c(C)cc(-c2ccccc2)c1C(=O)C(=O)Nc1ccc(N2CCOCC2)cc1F` [Example 117, N-(2-Fluoro-4-morpholin-4-yl-phenyl)-2-[1-(2-methoxy-ethyl)-5-methyl-3-phenyl-1H-pyrrol-2-yl]-2-oxo-acetamide], the MIC in assay [1] is greater than 10 µg/mL; in [2] it was less than 1 µg/mL; in assay [3], 1 to 10 µg/mL (≈ 2.15 to 21.5 µM); in [4], 1 to 10 µg/mL (≈ 2.15 to 21.5 µM); in assay [5], 1 to 10 µg/mL (≈ 2.15 to 21.5 µM); in assay [6] it was greater than 10 µg/mL. The MIC in assay [7] was less than 1 µg/mL; in [8], less than 1 µg/mL; in assay [9] it was less than 1 µg/mL; in assay [10] it was 1 to 10 µg/mL (≈ 2.15 to 21.5 µM); in assay [11] it was less than 1 µg/mL; in assay [12], less than 1 µg/mL.

Take `COCCn1cc(-c2cccc(Cl)c2)cc1C(=O)C(=O)Nc1ccc(N2CCN(c3cc(C)cc(C)n3)CC2)cc1` [Example 71, 2-[4-(3-Chloro-phenyl)-1-(2-methoxy-ethyl)-1H-pyrrol-2-yl]-N-{4-[4-(4,6-dimethyl-pyridin-2-yl)-piperazin-1-yl]-phenyl}-2-oxo-acetamide]: the MIC in [1], in assay [2], in assay [3], in assay [4], in assay [5] and in assay [6] was greater than 10 µg/mL in each case. The minimum inhibitory concentration (MIC) is greater than 10 µg/mL in assay [7]; greater than 10 µg/mL in assay [8]; greater than 10 µg/mL in assay [9]; greater than 10 µg/mL in assay [10]; greater than 10 µg/mL in [11]; 1 to 10 µg/mL (≈ 1.75 to 17.5 µM) in assay [12].

Regarding `Cc1cc(-c2ccccc2)c(C(=O)C(=O)Nc2ccc(-c3ncc(CN4CCCCC4)o3)cc2)n1C` [Example 153, 2-(1,5-Dimethyl-3-phenyl-1H-pyrrol-2-yl)-2-oxo-N-[4-(5-piperdin-1-ylmethyl-oxazol-2-yl)-phenyl]-acetamide], the “MIC grade, A. flavus” value was 2 (A grade of 2 represents an MIC of from 1 to 10 mg/L) in assay [1] and 3 (A grade of 3 represents an MIC of less than 1 mg/L) in [7]. In addition, the “MIC grade, A. niger” value in assay [2] and in assay [8] was 3 (A grade of 3 represents an MIC of less than 1 mg/L) in each case. The “MIC grade, A. terreus” value in assay [3] (MIC banded into grades) was 3 (A grade of 3 represents an MIC of less than 1 mg/L); in [9] it was 2 (A grade of 2 represents an MIC of from 1 to 10 mg/L). Besides, the “MIC grade, A. fumigatus 210” value in assay [4] (MIC banded into grades) and in [10] was 2 (A grade of 2 represents an MIC of from 1 to 10 mg/L) throughout. For the same molecule, the “MIC grade, A. fumigatus” value in [5] (MIC banded into grades) is 2 (A grade of 2 represents an MIC of from 1 to 10 mg/L); in assay [11], 3 (A grade of 3 represents an MIC of less than 1 mg/L). The “MIC grade, A. terreus 49” value in [6] (MIC banded into grades) and in [12] was 3 (A grade of 3 represents an MIC of less than 1 mg/L) in each case.

Turning to `Cc1cc(-c2ccccc2)c(C(=O)C(=O)Nc2ccc(-c3ncco3)c(F)c2)n1C` [Example 148, 2-(1,5-Dimethyl-3-phenyl-1H-pyrrol-2-yl)-N-[3-fluoro-4-oxazole-2-yl-phenyl)-2-oxo-acetamide], the MIC in [1] was less than 1 µg/mL; in assay [2], less than 1 µg/mL; in [3], less than 1 µg/mL; in [4] it was 1 to 10 µg/mL (≈ 2.48 to 24.8 µM); in [5] it was less than 1 µg/mL; in [6], less than 1 µg/mL. In addition, the MIC in [7], in assay [8], in [9], in assay [10], in assay [11] and in assay [12] was less than 1 µg/mL in each case.

As usually defined, the MIC is the least concentration at which growth counts as inhibited.
